Values joined by “and” are separate entries in the source; they are usually repeats but may differ in a detail not shown here. Equal entries are not always repeated. Where two headings read alike, the source gives them in different places. Square brackets hold non-standard residues; d marks the D form. Peptide text beside a SMILES is read from it. pY = N[C@@H](Cc1ccc(OP(=O)(O)O)cc1)C(=O)O
What was measured:
DLAR D1D2 [1] = molecular target: T1, DLAR D1D2 (Drosophila melanogaster, UniProt P16621); test: Surface Plasmon Resonance peptide binding, DLAR D1D2; details: two-site model, read-out: ka
T1 construct: DLAR 1448-2029; His tag (pET-15b or pET-22b); made in house; host or cells: E. coli BL21(DE3)
T1 sequence (P16621 1448-2029): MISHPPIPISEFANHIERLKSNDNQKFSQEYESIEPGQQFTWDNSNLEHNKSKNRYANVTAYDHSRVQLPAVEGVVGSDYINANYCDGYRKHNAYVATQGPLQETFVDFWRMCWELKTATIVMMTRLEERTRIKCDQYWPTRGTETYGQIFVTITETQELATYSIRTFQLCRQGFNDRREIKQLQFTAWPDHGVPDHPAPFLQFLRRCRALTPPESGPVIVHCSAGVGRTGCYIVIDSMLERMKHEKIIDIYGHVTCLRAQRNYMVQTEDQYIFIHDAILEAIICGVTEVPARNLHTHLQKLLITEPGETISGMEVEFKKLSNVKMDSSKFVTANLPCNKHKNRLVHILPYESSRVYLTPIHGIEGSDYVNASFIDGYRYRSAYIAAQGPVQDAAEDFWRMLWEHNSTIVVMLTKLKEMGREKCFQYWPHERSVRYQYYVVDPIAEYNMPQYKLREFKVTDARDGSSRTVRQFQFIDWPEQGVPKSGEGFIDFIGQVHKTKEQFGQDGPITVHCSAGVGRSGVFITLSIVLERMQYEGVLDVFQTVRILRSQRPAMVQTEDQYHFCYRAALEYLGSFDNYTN
Experimental: The binding of phosphotyrosine peptides to the PTP domains was studied by Surface Plasmon Resonance on a Biacore-2000 instrument (BIAcore, AB). All experiments were conducted at 25°C. DLAR PTP domains were immobilized onto carboxylated dextran CM5 chips (BIAcore AB) using the standard amine coupling procedure as recommended by the manufacturer. Binding and kinetic assays were performed in 10 mM HEPES, pH 8.0, 150 mM NaCl, 10 mM DTT and 3 mM EDTA at a flow rate of 5 µL/min. The peptides were used at concentrations ranging from 50–700 µM. Dissociation was initiated by replacing the analyte with buffer. The association and dissociation curves were monitored for 600 sec. Sensograms were analyzed with BIA-evaluation software version 2 (BIAcore AB). Sensograms for DLAR D1D2, DLAR D1HSSD2 and DLAR D1D2HSS were fitted to two-site binding equations. DLAR D1 and DLAR D2 sensograms were fitted using a single-site binding model.

DLAR D1D2 [2] = molecular target: T1, DLAR D1D2; test: Phosphatase assay using pNPP, DLAR D1D2; assay type: biochemical; details: 2 mM DTT
Experimental: (§1) Phosphatase activity of the recombinant PTP domains was determined by using para-Nitrophenylphosphate (pNPP), a small molecule generic substrate, as well as phosphotyrosine containing peptides. The pNPP assay was performed as reported previously, with a modification in the buffer composition (25 mM Citrate, Glycine and HEPES (CGH), pH 6.5, 100 mM NaCl and 2 mM DTT). Phosphatase activity with the phosphotyrosine peptides was ascertained by the malachite green reaction as described for PTPs previously. Briefly, the reaction mixture comprised of 0.01 µM protein incubated with increasing concentrations of different peptides in 25 mM citrate buffer pH 6.0, 100 mM NaCl and 2 mM DTT for 15 min at 25°C. The reaction was stopped by the addition of the Biomol Green reagent (Enzo Life Sciences) and the colour developed after 20 min was quantified at 650 nm. For all the assays, kinetic constants for the steady state catalysis were obtained by fitting the reaction curves to the Michaelis-Menten equation using the nonlinear regression module of Sigma plot software (Systat Software, Inc.).
The tandem PTP domains of PTP99A (PTP99A D1D2) and DLAR (DLAR D1D2) , the individual PTP domains (D1 and D2) as well as the active site mutants were expressed in E. coli and were purified using the protocols described earlier (Figure 1a, Figure S1a, b & c). The biochemical characterization and catalytic activity measurements were performed using pNPP as a substrate. […] Thus the D2 domain appears to have a regulatory role in both RPTPs- decreasing the catalytic activity in the case of DLAR while increasing the catalytic activity in the case of PTP99A (Figure 1b).

DLAR D2 = molecular target: T2, DLAR D2 (Drosophila melanogaster, UniProt P16621); test: Phosphatase assay using pNPP, DLAR D2; assay type: biochemical; details: CGH buffer pH 6.5
T2 construct: DLAR 1728-2029; His tag (pET-15b or pET-22b); made in house; host or cells: E. coli BL21(DE3)
T2 sequence (P16621 1728-2029): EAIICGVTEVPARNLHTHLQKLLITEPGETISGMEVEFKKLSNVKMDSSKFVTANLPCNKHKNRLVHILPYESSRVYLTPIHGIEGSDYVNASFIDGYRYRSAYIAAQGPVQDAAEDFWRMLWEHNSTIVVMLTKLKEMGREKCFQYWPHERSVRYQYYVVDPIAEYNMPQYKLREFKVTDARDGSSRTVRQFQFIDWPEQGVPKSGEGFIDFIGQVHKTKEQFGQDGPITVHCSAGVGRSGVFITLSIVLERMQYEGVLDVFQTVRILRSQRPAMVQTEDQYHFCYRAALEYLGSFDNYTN
Experimental: as §1

## CC(C)C[C@H](NC(=O)[C@H](C)NC(=O)CNC(=O)[C@H](Cc1ccc(OP(=O)(O)O)cc1)NC(=O)[C@H](CC(=O)O)NC(=O)[C@@H]1CCCN1C(=O)[C@H](CCC(=O)O)NC(=O)[C@H](C)NC(=O)[C@@H](N)[C@@H](C)O)C(=O)N[C@@H](Cc1ccc(O)cc1)C(=O)N[C@@H](CCC(=O)O)C(=O)O [Cuticle peptide] (H-TAEPD[pY]GALYE-OH)
DLAR D1D2 [1]; pH 8, SPR Biacore-2000, 25°C, 10 mM HEPES pH 8.0, 150 mM NaCl, 10 mM DTT, 3 mM EDTA, peptides 50–700 µM, first binding site
  kon: 32.6 ± 1.57 M⁻¹ s⁻¹
DLAR D1D2 [1]; pH 8, SPR, 25°C, pH 8.0, second binding site
  kon: 16500 ± 2.3e+07 M⁻¹ s⁻¹

## O=[N+]([O-])c1ccc(OP(=O)(O)O)cc1 [pNPP, para-Nitrophenylphosphate]
DLAR D1D2 [2]; 25 mM Citrate, Glycine and HEPES (CGH), pH 6.5, 100 mM NaCl, Michaelis-Menten fit
  Vmax: 6.19 µmol/min/mg and 6.19 ± 0.14 µmol/min/mg
DLAR D1D2 [2]; CGH buffer pH 6.5, 100 mM NaCl
  Kcat: 6.88 ± 0.16 s⁻¹
  Kcat/Km: 3.23 ± 0.09 x 10^3 sec^-1M^-1
DLAR D2
  PTPase activity: no detectable activity

Source: article PMC3172300, “Modulation of Catalytic Activity in Multi-Domain Protein Tyrosine Phosphatases” (PLoS ONE, 2011)
